What was measured:
[1] = iTLC and HPLC characterization of DFO complexes, 68Ga; assay type: physicochemical; conditions: for DFO complex, pH 3 / DFO complex, pH 5.5: 68Ga, 37° C.
Procedure: (§1) Extensive HPLC and thin-layer chromatography (TLC) analysis of multiple radiometals with pyochelin or DFO were performed. Radiometals were combined with siderophore at ratio of 20 uCi/ug in 50 uL buffer. Buffers consisted of sodium acetate (NaOAc), ammonium acetate, and HEPES at pH 3.5, 5.5, and 7 respectively. Complexation was heated to either 37° C. for one hour or 50° C. for one hour. Gallium-68 was prepared by concentrating the generator eluate in 0.1 M HCl onto a 30 mg Strata-XC cartridge, which was then air dried and the gallium eluted with three 150 uL aliquots of acetone. Reactions with gallium-68 were then carried out by adding 5 μg of siderophore with 50 uL of pH 3.5 sodium acetate and ˜250 uCi of gallium-68 radiometal and incubated at 37° C. for 20 minutes. Reaction products were placed on HPLC at 5-50% acetonitrile for 15 minutes using a kinetex evo C-18 column.

[2] = iTLC and HPLC characterization of DFO complexes, 64Cu; assay type: physicochemical; conditions: 37° C.
Procedure: as §1

[3] = tested on: non-FoxA expressing organisms; assay: PET/CT imaging and ex vivo biodistribution of Ga-68 DFO, non-FoxA organisms; assay type: in vivo
[4] = tested on: FoxA expressing P. aeruginosa; assay: PET/CT imaging and ex vivo biodistribution of Ga-68 DFO, P. aeruginosa; assay type: in vivo, Pseudomonas aeruginosa
[5] = Preliminary screen of Cu-64 with different siderophores (complexation); assay type: physicochemical; conditions: for Cu-64 screen with siderophore, pH 3 / Cu-64 screen with siderophore, pH 5.5 / Cu-64 screen with siderophore, pH 7.0 / Cu-64 screen with siderophore, pH 9: 64Cu
Procedure: Preliminary in vitro data evaluating multiple siderophores with multiple radiometals to understand general binding characteristics was performed. To further evaluate Cu-64 binding affinity with Pch for in vivo applications, in vitro HPLC stability studies were performed to determine the percentage of bound Cu-64-Pch after incubation in serum. Samples were incubated for time points 0, 0.5, 1, 6, and 24. After incubation, samples were prepared for HPLC analysis by adding 500 uL of ammonium acetate with ethanol extraction solvent, spun at 12,000 RPM for 5 minutes. The top 2⁄3 of the supernatant was removed for HPLC analysis. After HPLC stability analysis, multiple HPLC purity studies were performed to determine the relative amount of free copper compared to Pch-bound copper. To prepare for purity analysis, 150 uCi of Cu-64 was incubated for 1 hour with varying amounts of 1 mg/mL pyochelin ranging from 0.5 to 10 uL, with ammonium acetate being added to reach a maximum volume of 350 uL. Additional purity studies were conducted using 150 uCi of Cu-64 along with 10 uL of 1 mg/mL pyochelin and ammonium acetate, but involved varying incubation periods consisting of 10, 20, 30, 45, and 60 minutes at 37° C. Lastly, UV chromatograms of Pch were generated using varying concentrations of Pch in ammonium acetate, consisting of 25, 50, 100, and 200 uL of Pch with ammonium acetate being added to reach 350 uL total volume. All HPLC analysis was conducted using 5-95% acetonitrile gradient over 10 minutes, with a flow rate of 1 mL/min using an Agilent Poroshell 120 EC-C18 column. Extensive HPLC and thin-layer chromatography (TLC) analysis of multiple radiometals with pyochelin or DFO were performed. Radiometals were combined with siderophore at ratio of 20 uCi/ug in 50 uL buffer. Buffers consisted of sodium acetate (NaOAc), ammonium acetate, and HEPES at pH 3.5, 5.5, and 7 respectively. […] Gallium-68 was prepared by concentrating the generator eluate in 0.1 M HCl onto a 30 mg Strata-XC cartridge, which was then air dried and the gallium eluted with three 150 uL aliquots of acetone. Reactions with gallium-68 were then carried out by adding 5 μg of siderophore with 50 uL of pH 3.5 sodium acetate and 250 uCi of gallium-68 radiometal and incubated at 37° C. for 20 minutes. Reaction products were placed on HPLC at 5-50% acetonitrile for 15 minutes using a […] evo C-18 column.

[6] = TLC analysis of pyochelin complexation with zirconium-89; assay type: physicochemical
Procedure: (§2) All radiometals-pyochelin combinations were screened at pH 3.5, 5.5, and 7 at both 37° C. and 50° C. […] (FIG. 4F).
as §1

[7] = TLC analysis of pyochelin complexation with manganese-52; assay type: physicochemical
Procedure: as §2, §1

[8] = TLC analysis of pyochelin complexation with gallium-68; assay type: physicochemical
Procedure: as §2, §1

[9] = TLC analysis of pyochelin complexation with lead-203; assay type: physicochemical
Procedure: as §2, §1

[10] = TLC analysis of pyochelin complexation with titanium-45; assay type: physicochemical
Procedure: as §2, §1

[11] = HPLC stability of Cu-64-Pch after incubation in serum; assay type: in vitro ADME; conditions: after 24 hours of serum incubation
Procedure: Preliminary in vitro data evaluating multiple siderophores with multiple radiometals to understand general binding characteristics was performed. To further evaluate Cu-64 binding affinity with Pch for in vivo applications, in vitro HPLC stability studies were performed to determine the percentage of bound Cu-64-Pch after incubation in serum. Samples were incubated for time points 0, 0.5, 1, 6, and 24. After incubation, samples were prepared for HPLC analysis by adding ˜500 uL of ammonium acetate with ethanol extraction solvent, spun at 12,000 RPM for 5 minutes. The top ⅔ of the supernatant was removed for HPLC analysis. After HPLC stability analysis, multiple HPLC purity studies were performed to determine the relative amount of free copper compared to Pch-bound copper. To prepare for purity analysis, ˜150 uCi of Cu-64 was incubated for 1 hour with varying amounts of 1 mg/mL pyochelin ranging from 0.5 to 10 uL, with ammonium acetate being added to reach a maximum volume of 350 uL. Additional purity studies were conducted using ˜150 uCi of Cu-64 along with 10 uL of 1 mg/mL pyochelin and ammonium acetate, but involved varying incubation periods consisting of 10, 20, 30, 45, and 60 minutes at 37° C. […]

[12] = tested on: fptA expressing P. aeruginosa; assay: PET/CT imaging and lung biodistribution of Cu-64 Pch in infected mice, P. aeruginosa; assay type: in vivo, Pseudomonas aeruginosa
Procedure: (§3) In vivo studies were performed using Balb/c mice. On day 1, Pseudomonas aeruginosa (PA01), Klebsiella pneumoniae, E. coli Nissle, E. coli UTI89, or Staphylococcus aureus bacterial concentrations of ˜3×10^6 CFU/mL were prepared via centrifugation at 7 k RPM and washed three times with 1 mL of phosphate-buffered saline (PBS). 100 uL of bacterial concentrates were administered to groups of 3 mice intra-nasally, along with one group receiving 0.9% saline. After 24 hours, Cu-64 Pch was prepared and given retro-orbitally at a dose of ˜150 uCi per mouse. 48 hours after bacterial administration, the mice underwent PET/CT imaging. Immediately after imaging, the mice were sacked, and the lungs harvested for radioactive biodistribution measurements.
(§4) An additional in vivo study was performed using only PA01 bacteria. In this example, the bacteria were administered via intra-tracheal route, rather than intra-nasal. This route of administration is limited to 20 uL. Similarly, Ga-68 pyochelin studies were performed as follows: on day 1, PA01 was grown overnight to a concentration of ˜3×10^6 CFU/mL. After overnight incubation, the bacteria was washed with PBS and 100 uL was administered intranasally to each mouse. 5 hours after bacterial administration, Ga-68 was prepared and given retro-orbitally at a dose of ˜150-200uCi per mouse. 1 hour after Ga-68 injection, the mice were imaged via PET/CT, followed by euthanasia for biodistribution of the lungs.

[13] = tested on: non-fptA expressing organisms; assay: PET/CT imaging and lung biodistribution of Cu-64 Pch in infected mice, non-fptA organisms; assay type: in vivo
Procedure: as §3

[14] = tested on: fptA expressing P. aeruginosa; assay: PET/CT imaging and ex vivo biodistribution of Ga-68 pyochelin, P. aeruginosa; assay type: in vivo, Pseudomonas aeruginosa; conditions: mice, bacteria intranasally, probe retro-orbitally ~150-200uCi, PET/CT 1 hour after injection
Procedure: as §4

[15] = tested on: non-fptA expressing organisms; assay: PET/CT imaging and ex vivo biodistribution of Ga-68 pyochelin, non-fptA organisms; assay type: in vivo; conditions: mice with non-fptA expressing organisms
[16] = Radio chromatogram stability of gallium bound Pch in serum; assay type: in vitro ADME
[17] = pH 3.5, 5.5, 7, 37° C. and 50° C.

CC(=O)N(O)CCCCCNC(=O)CCC(=O)N(O)CCCCCNC(=O)CCC(=O)N(O)CCCCCN [DFO, desferrioxamine B]
DFO complex, pH 3 ([1]; 20 mins): 93
DFO complex, pH 5.5 ([1]; 20 mins): 62
DFO complex, pH 3 ([1]; 60 mins): 92
DFO complex, pH 5.5 ([1]; 60 mins): 98
complexation between Ga-68 and DFO, in words ([1]; pH 3 and pH 5.5, 37° C.): high complexation
DFO complex, pH 3 ([2]; 20 mins): 1
DFO complex, pH 5.5 ([2]; 20 mins): 4
DFO complex, pH 3 ([2]; 60 mins): 1
DFO complex, pH 5.5 ([2]; 60 mins): 1

CC(=O)N([O-])CCCCCNC(=O)CCC(=O)N([O-])CCCCCNC(=O)CCC(=O)N([O-])CCCCCN.[68Ga+3] [Ga-68 DFO, gallium-68 bound DFO]
uptake of probe in the lungs (in vivo imaging and ex vivo biodistribution) [3]: limited uptake
uptake of probe in the lungs (in vivo imaging and ex vivo biodistribution) [4]: increased uptake

CN1[C@@H]([C@H]2CSC(c3ccccc3O)=N2)SC[C@H]1C(=O)O [PcH, pyochelin]
Cu-64 screen with siderophore, pH 3 ([5]; 37° C., 60 mins): 0
Cu-64 screen with siderophore, pH 5.5 ([5]; 37° C., 60 mins): 85
Cu-64 screen with siderophore, pH 7.0 ([5]; 37° C., 60 mins): 95
Cu-64 screen with siderophore, pH 9 ([5]; 37° C., 60 mins): 0
Cu-64 screen with siderophore, pH 3 ([5]; 90° C., 30 mins): 0
Cu-64 screen with siderophore, pH 5.5 ([5]; 90° C., 30 mins): 0
Cu-64 screen with siderophore, pH 7.0 ([5]; 90° C., 30 mins): 0
Cu-64 screen with siderophore, pH 9 ([5]; 90° C., 30 mins): 0
complexation of pyochelin with copper-64, in words ([5]; in vitro studies): complexes extremely well
binding affinity between Cu-64 and PcH ([5]; pH 5.5 and pH 7, 37° C.): high binding affinity
pH 3.5 (% complex) ([6]; Zirconium-89, pH 3.5, 37° C.): 22.8 % complex
pH 5.5 (% complex) ([6]; Zirconium-89, pH 5.5, 37° C.): 73.7 % complex
pH 7 (% complex) ([6]; Zirconium-89, pH 7, 37° C.): 75.6 % complex
association between pyochelin and zirconium-89 (TLC) [6, 17]: mostly poor association
pH 3.5 (% complex) ([7]; Manganese-52, pH 3.5, 37° C.): 1.2 % complex
pH 5.5 (% complex) ([7]; Manganese-52, pH 5.5, 37° C.): 2.2 % complex
pH 7 (% complex) ([7]; Manganese-52, pH 7, 37° C.): 1.1 % complex
association between pyochelin and manganese-52 (TLC) [7, 17]: mostly poor association
pH 3.5 (% complex) ([8]; Gallium-68, pH 3.5, 37° C.): 100 % complex
pH 5.5 (% complex) ([8]; Gallium-68, pH 5.5, 37° C.): 100 % complex
pH 7 (% complex) ([8]; Gallium-68, pH 7, 37° C.): 100 % complex
complexation of gallium-68 with pyochelin ([8]; all three pH conditions (3.5, 5.5, 7) at 37° C.): 100%
pH 3.5 (% complex) ([9]; Lead-203, pH 3.5, 37° C.): 3 % complex
pH 5.5 (% complex) ([9]; Lead-203, pH 5.5, 37° C.): 3 % complex
pH 7 (% complex) ([9]; Lead-203, pH 7, 37° C.): 2 % complex
association between pyochelin and lead-203 (TLC) [9, 17]: mostly poor association
pH 3.5 (% complex) ([10]; Titanium-45, pH 3.5, 37° C.): 33.1 % complex
pH 5.5 (% complex) ([10]; Titanium-45, pH 5.5, 37° C.): 72.3 % complex
pH 7 (% complex) ([10]; Titanium-45, pH 7, 37° C.): 60 % complex
association between pyochelin and titanium-45 (TLC) [10, 17]: mostly poor association

copper-64 bound pyochelin [Cu-64-Pch]
stability after serum incubation (HPLC) [11]: ≥ 91%
uptake of probe in the lungs (imaging and radioactive biodistribution) ([12]; Balb/c mice, bacteria intra-nasally, probe retro-orbitally ~150 uCi, PET/CT 48 hours after bacteria): increased uptake
transport of probe into bacterial cells (in vivo images) ([12]; P. aeruginosa cells): transported into the P. aeruginosa cells
biodistribution levels in lungs ([12]; P. aeruginosa containing lungs): elevated levels
biodistribution and probe accumulation, intra-tracheal compared to intra-nasal bacterial administration ([12]; PA01 administered intra-tracheally vs intra-nasally): significant increase in biodistribution and probe accumulation
uptake of probe in the lungs (imaging and radioactive biodistribution) ([13]; Balb/c mice infected with non-fptA expressing organisms, probe retro-orbitally ~150 uCi): limited uptake
transport of probe into bacterial cells (in vivo images) ([13]; bacterial cells that don't express the fptA receptor): not transported

gallium-68 bound pyochelin [Ga-68 Pch]
uptake of probe in the lungs (in vivo imaging and ex vivo biodistribution) [14]: increased uptake
uptake of probe in the lungs (in vivo imaging and ex vivo biodistribution) [15]: limited uptake
stability in serum (radio chromatogram) [16]: high stability in serum

Source: patent US20250228984A1, “Metallophore-Radionuclide Complex as Nuclear Imaging Contrast Agents” (priority 2024, published 2025)
